# Laboratory results as given in patent US20080305175A1, “Micro-Container” (AGENCY FOR SCIENCE, TECHNOLOGY AND RESEARCH, priority 2006, published 2008).
# Where a name gives a salt, the structure may show the parent alone.
# Columns and labels:
# [1] = In vivo release test, DOX concentration in blood after subcutaneous administration; parameters: species or system Male Sprague Dawley rats; conditions: rat, 1 mg DOX in normal saline subcutaneously, ~20 mL blood in a rat
# Experimental: Male Sprague Dawley rats (8 weeks, average weight 250 g) were stabilized for 1 week with free access to food and water. Microcontainers loaded with DOX were subcutaneously administered into the rats at a level of 3.7 mg/Kg (10 mg microspheres containing 1 mg DOX were freshly dispersed in 0.5 mL of normal saline solution for each rat). […] The blood samples were separated by centrifugation at 2000 g at 4° C. for 10 min and the obtained plasma samples were then stored at −20° C. prior to analysis. Just before the DOX extraction, the plasma samples were thawed followed by adding 3 ml of 70% ethanol and 30% 0.45 M HCl aqueous solution by volume. The obtained suspensions were mixed for 30 s to form gels. These gels were first stored at 4° C. for 24 hours in dark, and then centrifuged at 10,000 g for 15 min. The supernatants were transferred into glass cuvettes and allowed to warm to room temperature for the determination of DOX concentration by a fluorescence spectrophotometer.
# [2] = cited from earlier work
Structure (SMILES),DOX concentration level that can be reached in blood [1] [µg/mL],solubility in water ([2]; water) [µg/mL],stability versus pH ([2]; pH of more than 6.5)
"COc1cccc2c1C(=O)c1c(O)c3c(c(O)c1C2=O)C[C@@](O)(C(=O)CO)C[C@@H]3O[C@H]1C[C@H](N)[C@H](O)[C@H](C)O1 [DOX, Doxorubicin hydrochloride]",50,10000,
"COc1cccc2c1C(=O)c1c(O)c3c(c(O)c1C2=O)C[C@@](O)(C(=O)CO)C[C@@H]3O[C@H]1C[C@H](N)[C@H](O)[C@H](C)O1 [Doxorubicin, doxorubicin]",,,unstable
